Data on one compound can be found in paper PMC7596714, “Acute EPA-induced learning and memory impairment in mice is prevented by DHA” (Nature Communications, 2020).

This assay addresses T1, 5-HT6R (5-hydroxytryptamine6 receptor, serotonin 6 receptor) (Homo sapiens, UniProt P50406).
T1 construct: gene HTR6
The experiment in a line: radioligand competition with [3H]-LSD; supported by cAMP accumulation in […] cells with human 5-HT6R plasmid. Format: binding. (Displacement assays read how much labelled ligand stays bound in the presence of the test substance.)

What is called IC50 is the concentration that inhibits the measured activity by half. Low values mean greater potency in that assay, high ones weaker potency in that assay.

T1 sequence (P50406 whole entry): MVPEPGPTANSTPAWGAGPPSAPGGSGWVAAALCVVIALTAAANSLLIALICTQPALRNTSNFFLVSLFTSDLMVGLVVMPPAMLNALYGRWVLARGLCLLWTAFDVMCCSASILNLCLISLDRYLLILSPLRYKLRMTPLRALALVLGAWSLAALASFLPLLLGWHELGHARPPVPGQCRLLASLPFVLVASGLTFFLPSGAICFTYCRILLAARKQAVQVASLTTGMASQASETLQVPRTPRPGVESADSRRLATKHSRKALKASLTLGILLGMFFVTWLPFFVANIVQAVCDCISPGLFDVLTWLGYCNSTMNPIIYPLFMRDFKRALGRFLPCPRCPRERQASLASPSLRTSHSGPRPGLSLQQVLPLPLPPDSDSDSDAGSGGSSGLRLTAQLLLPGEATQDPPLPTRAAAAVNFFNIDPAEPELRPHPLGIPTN

`CC/C=C\C/C=C\C/C=C\C/C=C\C/C=C\CCCC(=O)O` [EPA, Eicosapentaenoic acid] gave a concentration for half-maximal inhibition (IC50) of 26.6 µM.
